Values after ≈ are worked out from the molar mass of the structure shown.
Columns and labels:
Assay type in all cases: cell-based
[1] = test system: LTE4-induced contraction of strips of guinea pig lung; assay: inhibition of LTE4-induced contraction of strips of guinea pig lung; conditions: Cavia porcellus; LTE4 3 ng/ml; indomethacin-pretreated strips (10^-6 g/ml); test substance added after maximum contraction plateau; 37° C.; read-out: IC50 with respect to LTE4
Method: (§1) The leukotriene-antagonistic action of the substances of the general formula I according to the invention is determined by the inhibition of the leukotriene-induced contraction of strips of guinea pig lung. The method which is used is a modification of the test described by Foreman, Shelly and Weber (Arch. Int. Pharmacodyn. 278, 193-206 (1985)).
(§2) Guinea pigs are sacrificed by an overdose of ether. The thoracic cavity is opened; the lungs are removed and cut into strips 5 cm long, which are stored in physiological saline. For the measurement, the strips of lung are placed in an organ bath filled with Ringer's solution which is equilibrated at 37° C. and through which carbogen (O2 /CO2 95:5 parts by volume) is passed. The strips are left to equilibrate under a load of 0.5-1 g for 30-60 minutes. The strips of lung are pretreated with indomethacin (10^-6 g/ml of bath liquid) before the test starts.
(§3) The contraction is induced by adding LTC4, LTD4 or LTE4 in a concentration of 3 ng/ml of bath liquid. The test substances are administered therapeutically into the bath, after the maximum contraction plateau has been reached, in several concentrations and at time intervals of 10 minutes. 6-12 strips of lung are used for each concentration of the test substance.
(§4) The concentrations of the test substances at which the contraction is reduced by 50% (IC50) are indicated in μg/ml.

[2] = test system: LTC4-induced contraction of strips of guinea pig lung; assay: inhibition of LTC4-induced contraction of strips of guinea pig lung; conditions: Cavia porcellus; LTC4 3 ng/ml; indomethacin-pretreated strips (10^-6 g/ml); test substance added after maximum contraction plateau; 37° C.; read-out: IC50 with respect to LTC4
Method: as §1, §2, §3, §4

[3] = test system: LTD4-induced contraction of strips of guinea pig lung; assay: inhibition of LTD4-induced contraction of strips of guinea pig lung; conditions: Cavia porcellus; LTD4 3 ng/ml; indomethacin-pretreated strips (10^-6 g/ml); test substance added after maximum contraction plateau; 37° C.; read-out: IC50 with respect to LTD4
Method: as §1, §2, §3, §4

SMILES	IC50 [1]	IC50 [2]	IC50 [3]
COC(=O)CCSCC(O)Cc1cccc(C2CCCC2)c1OCc1ccccc1 (racemic) [Compound B, Methyl (6RS)-7-(2-benzyloxy-3-cyclopentylphenyl)-6-hydroxy-4-thiaheptanoate]	3 µg/mL (≈ 7 µM)	0.6 µg/mL (≈ 1.4 µM)	1 µg/mL (≈ 2.33 µM)
COC(=O)CCSCC(O)Cc1cc(Cl)ccc1OCc1ccccc1 (racemic) [Compound D, Methyl (6RS)-7-(2-benzyloxy-5-chlorophenyl)-6-hydroxy-4-thiaheptanoate]	1 to 3 µg/mL (≈ 2.53 to 7.6 µM)	6 to 10 µg/mL (≈ 15.2 to 25.3 µM)	3 µg/mL (≈ 7.6 µM)
OCCSCC(O)Cc1cccc(C2CCCC2)c1OCc1ccccc1 (racemic) [Compound E, (5RS)-6-(2-benzyloxy-3-cyclopentylphenyl)-3-thiahexane-1,5-diol]	1 to 3 µg/mL (≈ 2.59 to 7.76 µM)	6 to 10 µg/mL (≈ 15.5 to 25.9 µM)	6 to 10 µg/mL (≈ 15.5 to 25.9 µM)
COC(=O)CCSCC(O)Cc1ccccc1OCc1ccccc1 (racemic) [Compound A, Methyl (6RS)-7-(2-benzyloxyphenyl)-6-hydroxy-4-thiaheptanoate]	0.6 to 1 µg/mL (≈ 1.66 to 2.77 µM)	0.6 to 1 µg/mL (≈ 1.66 to 2.77 µM)	0.6 µg/mL (≈ 1.66 µM)
O=C(O)CCSCC(O)Cc1cccc(C2CCCC2)c1OCc1ccccc1 (racemic) [Compound C, (6RS)-7-(2-Benzyloxy-3-cyclopentylphenyl)-6-hydroxy-4-thiaheptanoic acid]	3 µg/mL (≈ 7.24 µM)	3 to 6 µg/mL (≈ 7.24 to 14.5 µM)	3 to 6 µg/mL (≈ 7.24 to 14.5 µM)

— patent publication US4855323A, “Leukotriene antagonists, a process for the preparation thereof, and the use thereof for the treatment of diseases” (Hoechst Aktiengesellschaft, priority 1987, dated 1989)
